Consider 3 compounds from ChEMBL document CHEMBL1159025, “A Novel Hydrolyzable Tannin and Related Compounds Isolated from the Leaf Surface of Chrysolepis sempervirens” (1992).

One test concerns Staphylococcus aureus. Briefly: Antimicrobial activity against Staphylococcus aureus ATCC 6538 at 1000 ug/ml by macro-dilution broth culture method. It is filed as functional, organism-based.
For the next test, the system named is HeLa. The test can be described thus: Cytotoxicity against human HeLa cells at 100 ug/ml. It is filed as functional.
Another test concerns Pseudomonas aeruginosa. Briefly: Antimicrobial activity against Pseudomonas aeruginosa ATCC 25619 at 1000 ug/ml by macro-dilution broth culture method. Type of test: functional, organism-based.
The test system of another test is Candida albicans. The test can be described thus: Antimicrobial activity against Candida albicans ATCC 18804 at 1000 ug/ml by macro-dilution broth culture method. It is filed as functional, organism-based.

Active and inactive are the calls of the source. The calls are words filed in the database; no cut-off is given here.

As for `O=C1OC[C@H]2OC(=O)c3cc(O)c(O)c(O)c3-c3c(O)c(O)c(O)c4c3C(=O)O[C@H]([C@@H](O)[C@@H](O)c3c(O)c(O)c(O)c-4c3C(=O)O)[C@@H]2OC(=O)c2cc(O)c(O)c(O)c2-c2c1cc(O)c(O)c2O` [CHINQUAPINIC ACID], the result with Staphylococcus aureus, in the test with Pseudomonas aeruginosa and in the test with Candida albicans was inactive. Further, the Activity with HeLa is given as 70%.

Consider `O=C1OC[C@H]2OC(=O)c3cc(O)c(O)c(O)c3-c3c(O)c(O)c(O)c4c3C(=O)O[C@H]([C@H]3OC(=O)c5c-4c(O)c(O)c(O)c5[C@H]3O)[C@@H]2OC(=O)c2cc(O)c(O)c(O)c2-c2c1cc(O)c(O)c2O` [CASTALAGIN], for which the result with Staphylococcus aureus, in the test on Pseudomonas aeruginosa and with Candida albicans was inactive. The compound further registered an Activity in the test with HeLa of 70%.

In the case of `O=C1OCC2OC(=O)c3cc(O)c(O)c(O)c3-c3c(O)c(O)c(O)c4c3C(=O)OC(C2OC(=O)c2cc(O)c(O)c(O)c2-c2c1cc(O)c(O)c2O)C1OC(=O)c2c-4c(O)c(O)c(O)c2C1O` (configuration not stated) [VESCALAGIN], the outcome with Staphylococcus aureus, in the test on Pseudomonas aeruginosa and with Candida albicans was inactive. The compound further had an Activity in the test on HeLa of 70%.
